Source: patent US20140088306A1, “RADIOACTIVE FLUORINE-LABELED QUINOXALINE COMPOUND” (Nihon Medi-Physics Co., Ltd., priority 2012, published 2014)

How the values were obtained:
[1] = In vivo radioactivity distribution experiment (Example 8); conditions: ddY mice, tail vein, SD in parenthesis
Experimental: Through the tail vein of ddY mice (male, 5 week-old) was injected each of a 10 volume % ethanol-containing saline solution of [^18F]E3 (45.4 kBq, 100 μL), a 10 volume % ethanol-containing saline solution of [^18F]D3 (38.2 kBq, 100 μL), a 10 volume % ethanol-containing saline solution of [^18F]E1 (45.1 kBq, 100 μL), and a 10 volume % ethanol-containing saline solution of [^18F]E2 (40.6 kBq, 100 μL). Five mice were used for each group and sacrificed 2, 10, 30, and 60 minutes after administration to remove major organs. The blood and organs were weighed and further measured for radioactivity using a γ counter. The amount of radioactivity per unit mass was measured in each organ to evaluate radioactivity distribution.

[2] = system: amyloid plaques in the brain; assay: Ex vivo autoradiography using Alzheimer's disease model mouse (Example 9); type: in vivo; conditions: Tg2576 mouse (24-month old) vs normal mouse; tail vein; 1 hour after administration
Experimental: To confirm whether the compound 2 has the performance capable of visualizing amyloid plaques in the brain, an image was taken by ex vivo autoradiography in a Tg2576 mouse as one of Alzheimer's disease model animals.
[^18F]D3 (55.5 MBq (1.5 mCi)/200 μL) was administered to a Tg2576 mouse (24-month old, female) and a normal mouse (24-month old, female) through their tail vein. Each mouse was sacrificed 1 hour after administration, and the brain was removed, embedded in a carboxymethylcellulose solution, and frozen in a dry ice-hexane bath, followed by preparing frozen sections having a thickness of 30 μm using a cryostat (Leica). The resultant brain tissue sections were each placed on an imaging plate (Model BAS-SR, from Fujifilm Corporation) for 30 minutes for exposure, and the respective autoradiographs were obtained using an image analyzer (Bio Imaging Analyzer Model BAS5000, from Fujifilm Corporation). The same sections were each stained with thioflavin S ([…]), washed, and observed under a fluorescent microscope.

[3] = system: amyloid plaques; assay: Autoradiography using postmortem brain section of patient with Alzheimer's disease (Example 7); type: binding, human (Alzheimer's disease patient); conditions: brain section (temporal lobe) of Alzheimer's disease patient; 0.37 MBq/100 μL, 1 hour
Experimental: A postmortem autopsy brain section (temporal lobe) of a patient with Alzheimer's disease was incubated together with each of [^18F]E3, [^18F]D3, [^18F]E1, and [^18F]E2 (0.37 MBq/100 μL each) at room temperature for 1 hour. The resultant was washed with a 50 volume % ethanol aqueous solution (2 minutes×2) and water (2 minutes×2), and after drying, the section was contacted with BAS imaging plate (from Fujifilm Corporation) for 1.5 hours. The image of autoradiography was obtained using BAS5000 scanner system (from Fujifilm Corporation).
A section adjacent to the brain section used was immunostained in the following manner.
First, a paraffin-embedded brain section of the Alzheimer's disease patient (temporal lobe, 6 μm in thickness) was incubated with xylene (15 minutes×2), ethanol (1 minute×2), a 90 volume % ethanol aqueous solution (1 minute×2), and a 70 volume % ethanol aqueous solution (1 minute×1) in that order for complete deparaffinization, and then washed in water (2.5 minutes×2). Thereafter, the section was subjected to autoclave treatment for 15 minutes in 0.01 mol/L citrate buffer solution (pH 6.0). The resultant was incubated in PBS-Tween20 (5 minutes×2), and a mouse anti-Aβ1-42 primary monoclonal antibody (from Wako Pure Chemical Industries Ltd.) was then added thereto, which was then incubated at room temperature overnight. The resultant was incubated in PBS-Tween20 (2 minutes×3), and a biotin-goat anti-mouse IgG (from Funakoshi Co., Ltd.) was then added thereto, which was then incubated at room temperature for 1 hour. The resultant was incubated in PBS-Tween20 (5 minutes×3), and a streptavidin-peroxidase complex (from Funakoshi Co., Ltd.) was added thereto, which was then incubated at room temperature for 30 minutes. In addition, the resultant was incubated in PBS-Tween20 (2 minutes×3); 3,3′-diaminobenzidine was added thereto, which was then incubated at room temperature for 30 minutes; and after washing with water, the section was observed under a microscope to provide an immunostained image (FIG. 10).

Chain of amyloid plaques (P05067 672-711 limits assumed): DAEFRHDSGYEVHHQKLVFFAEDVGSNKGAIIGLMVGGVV
Chain of amyloid plaques in the brain (P05067 672-711 limits assumed): as above

## 4-(6-(2-[^18F]Fluoroethoxy)quinoxalin-2-yl)-N,N-dimethylaniline [[^18F]D3]
[1]; 2 min. after
  Radioactivity Amount, Blood: 2.66 (0.50) % injected dose/g
  Radioactivity Amount, Bone: 2.65 (0.61) % injected dose/g
  Radioactivity Amount, Brain: 5.67 (0.48) % injected dose/g
  Radioactivity Amount, Heart: 8.50 (1.40) % injected dose/g
  Radioactivity Amount, Intestine: 2.56 (0.10) % injected dose/g
  Radioactivity Amount, Kidney: 10.7 (0.96) % injected dose/g
  Radioactivity Amount, Liver: 10.3 (1.00) % injected dose/g
  Radioactivity Amount, Lung: 8.94 (1.76) % injected dose/g
  Radioactivity Amount, Pancreas: 6.55 (0.63) % injected dose/g
  Radioactivity Amount, Spleen: 2.86 (0.66) % injected dose/g
  Radioactivity Amount, Stomach*: 1.09 (0.05) % injected dose per organ
[1]; 10 min. after
  Radioactivity Amount, Blood: 2.29 (0.25) % injected dose/g
  Radioactivity Amount, Bone: 2.75 (0.36) % injected dose/g
  Radioactivity Amount, Brain: 6.39 (0.51) % injected dose/g
  Radioactivity Amount, Heart: 4.19 (0.47) % injected dose/g
  Radioactivity Amount, Intestine: 5.27 (0.27) % injected dose/g
  Radioactivity Amount, Kidney: 6.66 (0.45) % injected dose/g
  Radioactivity Amount, Liver: 9.83 (0.22) % injected dose/g
  Radioactivity Amount, Lung: 4.59 (1.07) % injected dose/g
  Radioactivity Amount, Pancreas: 4.74 (0.42) % injected dose/g
  Radioactivity Amount, Spleen: 4.09 (0.33) % injected dose/g
  Radioactivity Amount, Stomach*: 1.64 (0.28) % injected dose per organ
[1]; 30 min. after
  Radioactivity Amount, Blood: 2.98 (0.29) % injected dose/g
  Radioactivity Amount, Bone: 2.82 (0.78) % injected dose/g
  Radioactivity Amount, Brain: 3.73 (0.50) % injected dose/g
  Radioactivity Amount, Heart: 3.29 (0.68) % injected dose/g
  Radioactivity Amount, Intestine: 9.82 (1.43) % injected dose/g
  Radioactivity Amount, Kidney: 4.19 (0.78) % injected dose/g
  Radioactivity Amount, Liver: 6.91 (0.81) % injected dose/g
  Radioactivity Amount, Lung: 3.51 (0.44) % injected dose/g
  Radioactivity Amount, Pancreas: 2.73 (0.50) % injected dose/g
  Radioactivity Amount, Spleen: 2.66 (0.57) % injected dose/g
  Radioactivity Amount, Stomach*: 1.98 (0.47) % injected dose per organ
[1]; 60 min. after
  Radioactivity Amount, Blood: 3.26 (0.37) % injected dose/g
  Radioactivity Amount, Bone: 2.77 (1.27) % injected dose/g
  Radioactivity Amount, Brain: 2.61 (0.37) % injected dose/g
  Radioactivity Amount, Heart: 3.74 (0.72) % injected dose/g
  Radioactivity Amount, Intestine: 12.3 (0.79) % injected dose/g
  Radioactivity Amount, Kidney: 3.30 (0.39) % injected dose/g
  Radioactivity Amount, Liver: 6.65 (0.90) % injected dose/g
  Radioactivity Amount, Lung: 3.39 (0.14) % injected dose/g
  Radioactivity Amount, Pancreas: 2.74 (0.19) % injected dose/g
  Radioactivity Amount, Spleen: 3.07 (0.68) % injected dose/g
  Radioactivity Amount, Stomach*: 2.06 (0.46) % injected dose per organ
[2]
  visualization of amyloid plaques in the brain, ex vivo autoradiography: could visualize amyloid plaques in the brain
[3]
  visualization of gray matter / amyloid plaques by autoradiography: amyloid plaques were visualized
